This is an account of results in US4610994A, “1,2,3-triazole anticonvulsant drugs” (priority 1984, dated 1986).

Values joined by “and” are separate entries in the source; they are usually repeats but may differ in a detail not shown here. Equal values may be shown once. Read-outs that look alike come from different tables or passages of the source. A value given as a limit tells only on which side of the number the result lay.

Data set [1] concerns subcutaneous Metrazol seizures. Briefly: subcutaneous Metrazol Seizure Threshold Test (sc Met) in mice.
Experimental: (§1) All animals were allowed free access to both food (S/L Custom Lab Diet-7) and water, except when they were removed from their cages for the experimental procedure.
(§2) The drugs were administered either orally or intraperitoneally in a volume of 0.01 ml/g body weight in mice and 0.04 ml/10 g in rats. All tests were conducted at the previously determined time of peak drug effect.
(§3) The profile of anticonvulsant activity for each substance was established by five tests: one electrical and four chemical. The electrical test employed was the maximal electroshock seizure pattern test. […] Except for the sc Strych Test, these tests measure the ability of anticonvulsants to afford complete protection against threshold seizures induced by the subcutaneous injection of the CD97 of the convulsant agent.
(§4) All convulsants were administered subcutaneously into a loose fold of skin on the back of the neck in a volume of 0.01 ml/g body weight in mice; Metrazol was injected in a volume of 0.02 ml/10 g body weight in rats. The convulsant drugs were administered at the previously determined time of peak anticonvulsant action of the drug under study. […] Except for strychnine, absence of a five-second episode of clonic spasms (threshold seizure) was taken as protection. In the case of strychnine, complete abolition of the hindleg tonic extension was taken as protection.
Data set [2] in a line: Phase III toxicity profile (overt signs and symptoms) in mice i.p. The settings on record: for Profile of acute toxicity, 1 x TD50: 1TD50; for Profile of acute toxicity, 2 x TD50: 2TD50.
Experimental: (§5) The profile of toxicity for each test drug was established by the following procedures: Firstly, the minimal neurotoxic dose (TD50) was determined by the rotorod procedure at the time of peak neurotoxic effect. When a normal mouse is placed on a knurled rod one inch in diameter rotating at a speed of six rpm it can maintain its equilibrium for long periods of time. Neurological deficit is indicated by inability of the mouse to maintain its equilibrium for one minute in each of three trials on this rotating rod. […] The HD50 represents the median dose at which 50% of animals lose their righting reflex.
Data set [3] relates to subcutaneous Bicuculline seizures. Nature of the data set: subcutaneous Bicuculline Seizure Threshold Test (sc Bic) in mice. The data set is classed as in vivo, mice (male albino, CF No. 1). The settings on record: mice i.p.; Compound 10 up to 300 mg/kg.
Experimental: as §1, §2, §3, §4
Data set [4] in a line: in vivo. The settings on record: mouse, po.
Experimental: as §1, §2
(§6) The profile of toxicity for each test drug was established by the following procedures: Firstly, the minimal neurotoxic dose (TD50) was determined by the rotorod procedure at the time of peak neurotoxic effect. When a normal mouse is placed on a knurled rod one inch in diameter rotating at a speed of six rpm it can maintain its equilibrium for long periods of time. Neurological deficit is indicated by inability of the mouse to maintain its equilibrium for one minute in each of three trials on this rotating rod. Neurological deficit in rats is indicated by ataxia, loss of placing response and muscle tone.
The test system of data set [5] is subcutaneous Strychnine seizures. Format: in vivo, mice (male albino, CF No. 1). The settings on record: mice, i.p.
Experimental: as §1, §2, §3, §4
Data set [6] deals with subcutaneous Picrotoxin seizures. Briefly: subcutaneous Picrotoxin Seizure Threshold Test (sc Pic) in mice. Format: in vivo, mice (male albino, CF No. 1). The note with it: mice i.p.; Compound 10 up to 300 mg/kg.
Experimental: as §1, §2, §3, §4
Data set [7] in a line: in vivo. The settings on record: mouse, ip.
The subject of data set [8] is maximal electroshock seizures. Nature of the data set: maximal electroshock seizure (MES) pattern test in mice. The note with it: mice, i.p.
Experimental: as §1, §2, §3
The nature of data set [9]: loss of righting reflex (HD50) in mice i.p. Details: species or system mice (male albino, CF No. 1).
Experimental: as §5
Data set [10] has as its system subcutaneous Metrazol seizures. Briefly: subcutaneous Metrazol Seizure Threshold Test (sc Met) in rats. The settings on record: p.o.
Experimental: as §1, §2, §3, §4
A short description of data set [11]: in vivo. The settings on record: rat, po.
Experimental: as §1, §2, §6
The conditions of data set [12]: rats, oral, higher doses; cited from earlier work.
The nature of data set [13]: sc convulsant dose CD97 in rats. The settings on record: Rattus norvegicus, subcutaneous. The data set is classed as in vivo.
Text: as §3
The format of data set [14] is in vivo. The note with it: mice, subcutaneous.
Text: as §3
[15] abbreviates: mice, i.p., 95% confidence interval.
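Wherever Rotorod TD50 is given: mice on rotorod: neurological deficit scored when the animal cannot keep balance for 1 min in every one of three trials on a 1-inch knurled rod turning at 6 rpm.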
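Wherever time of peak toxicity, rotorod is given: mice on rotorod: neurological deficit scored when the animal cannot keep balance for 1 min in every one of three trials on a 1-inch knurled rod turning at 6 rpm.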

What is called LD50 is the dose at which mortality reaches 50%. Read a high LD50 as lower toxicity. For `CCC1(C)CC(=O)NC1=O` (stereo not drawn) [Ethosuximide], the “Rotorod TD50” value under setting [15] was 440.83(383.09-485.34) mg/kg; the “Rotorod TD50” value (mice, i.p., 95% confidence interval, listed as ethosuximide) is recorded as 440.83 mg/kg; the “Rotorod TD50” value (mouse, in vivo, ip) is 44,.83(383.09-485.34) mg/kg. Moreover, the TD50 (mouse, in vivo, po) is recorded as 879,21 mg/kg; the TD50 in the data set “in vivo [4]” came to 879 mg/kg; the TD50 in [9] (mouse, in vivo, ip, HD50 (righting reflex)) was found to be 851 mg/kg. Besides, the “effectiveness by the sc Met test” value in [1] (mice, i.p.) is “effective”. The “sc Met ED50” value is 130.35 mg/kg and 130.35(110.99-150.45) mg/kg in data set [1] (setting [15]); 192.21 mg/kg in data set [1] (mice, p.o.). In addition, the “Profile of acute toxicity, 1 x TD50” value in data set [2] is “Uncoordinated”. In addition, the “Profile of acute toxicity, 2 x TD50” value in data set [2] is recorded as “Uncoordinated”. In addition, in data set [2] (4TD50), the “Profile of acute toxicity, 4 x TD50” value is on record as “Uncoordinated”. For the same molecule, the “effectiveness by the sc Bic test” value in data set [3] is listed as “had to be given in toxic doses to protect against sc Bic seizures”. In addition, the “animals protected in the sc Strych test” value in data set [5] is given as at most 62%. Moreover, the “effectiveness by the sc Pic test” value in data set [6] is “effective”. In addition, the LD50 at 24 h in “in vivo [7]” was 1750 mg/kg. Also, the “protection from maximal electroshock seizures” value in data set [8] is on record as “not able to protect mice from maximal electroshock seizures”. For the same molecule, the “MES ED50” value in [8] (95% confidence interval) is recorded as over 1000 mg/kg. Besides, the “HD50 (righting reflex)” value in data set [9] (mouse, in vivo, ip) is listed as 850.61(751.19-917.93) mg/kg.
On to `O=C1NC(=O)C(c2ccccc2)(c2ccccc2)N1` [Phenytoin], for which, under “mouse, in vivo, ip”, the “time of peak toxicity, rotorod” value is 2 h. Also, the “effectiveness by the sc Met test” value in data set [1] (mice i.p., listed as phenytoin) is reported as “did not protect against subcutaneous Metrazol seizures”; in [1] (mice, i.p.) it was “ineffective”; in [10], “ineffective”. Also, the “sc Met ED50” value in data set [1] (setting [15]) was over 300 mg/kg. Also, the “Profile of acute toxicity, 1 x TD50” value in data set [2] is “activity, slight ataxia, fre-”. In data set [2], the “Profile of acute toxicity, 2 x TD50” value is recorded as “Mild ataxia,”. Also, in data set [3], the “effectiveness by the sc Bic test” value is “ineffective”. Further, the “animals protected in the sc Strych test” value in data set [5] is recorded as 50%. In [6], the “effectiveness by the sc Pic test” value was “ineffective”. For the same molecule, the “HD50 (righting reflex)” value in [9] (setting [15]) is 178.34(152.93-195.45) mg/kg; in data set [9] (mice, i.p., 95% confidence interval, listed as phenytoin), 178.34 mg/kg. The “time of peak toxicity (TPE), righting reflex” value in [9] (mouse, in vivo, ip) was 12 h. In addition, in the data set “in vivo [11]”, the TD50 is over 3000 mg/kg. In addition, the “absorption from the gastrointestinal tract” value in [12] was “absorbed only to a limited extent”.
`C1CCc2nnnn2CC1` [Metrazol]: in data set [13], the ED97 amounted to 70 mg/kg. Besides, the “sc CD97” value in data set [14] is 85 mg/kg.
